Where two headings read alike, the source gives them in different places.
How the values were obtained:
[1] = tested on: ec308 (SHV-5); experiment: Aztreonam MIC of test strain; assay type: cell-based; conditions: read-out: Aztreonam MIC
[2] = tested on: ECL1002 (class C); experiment: Aztreonam MIC of test strain; assay type: cell-based; conditions: read-out: Aztreonam MIC
[3] = tested on: KP1005 (CTX-M-14); experiment: Aztreonam potentiation (MPC@4); assay type: cell-based; conditions: BLI concentration inhibiting growth with 4 μg/mL aztreonam; class A
[4] = tested on: KP1009 (CTX-M-15); experiment: Aztreonam potentiation (MPC@4); assay type: cell-based; conditions: BLI concentration inhibiting growth with 4 μg/mL aztreonam; class A
[5] = tested on: ec308 (SHV-5); experiment: Aztreonam potentiation (MPC@4); assay type: cell-based; conditions: BLI concentration inhibiting growth with 4 μg/mL aztreonam; class A
[6] = tested on: KP1010 (SHV-12); experiment: Aztreonam potentiation (MPC@4); assay type: cell-based
[7] = tested on: ec302 (TEM-10); experiment: Aztreonam potentiation (MPC@4); assay type: cell-based; conditions: BLI concentration inhibiting growth with 4 μg/mL aztreonam; class A
[8] = tested on: KP1004 (KPC-2); experiment: Aztreonam potentiation (MPC@4); assay type: cell-based; conditions: BLI concentration inhibiting growth with 4 μg/mL aztreonam; class A
[9] = tested on: ECL1002 (class C); experiment: Aztreonam potentiation (MPC@4); assay type: cell-based; conditions: BLI concentration inhibiting growth with 4 μg/mL aztreonam
[10] = tested on: EC1010 (CMY-6); experiment: Aztreonam potentiation (MPC@4); assay type: cell-based; conditions: BLI concentration inhibiting growth with 4 μg/mL aztreonam; class C
[11] = tested on: KP1007 (OXA-10); experiment: Aztreonam potentiation (MPC@4); assay type: cell-based; conditions: BLI concentration inhibiting growth with 4 μg/mL aztreonam; class D
[12] = tested on: KPX1001 (OXA-2); experiment: Aztreonam potentiation (MPC@4); assay type: cell-based; conditions: BLI concentration inhibiting growth with 4 μg/mL aztreonam; class D
[13] = tested on: KP1005 (CTX-M-14); experiment: Tigemonam potentiation (MPC@4); assay type: cell-based; conditions: BLI concentration inhibiting growth with 4 μg/mL tigemonam; class A
[14] = tested on: KP1009 (CTX-M-15); experiment: Tigemonam potentiation (MPC@4); assay type: cell-based; conditions: BLI concentration inhibiting growth with 4 μg/mL tigemonam; class A
[15] = tested on: ec308 (SHV-5); experiment: Tigemonam potentiation (MPC@4); assay type: cell-based; conditions: BLI concentration inhibiting growth with 4 μg/mL tigemonam; class A
[16] = tested on: KP1010 (SHV-12); experiment: Tigemonam potentiation (MPC@4); assay type: cell-based; conditions: BLI concentration inhibiting growth with 4 μg/mL tigemonam; class A
[17] = tested on: ec302 (TEM-10); experiment: Tigemonam potentiation (MPC@4); assay type: cell-based; conditions: BLI concentration inhibiting growth with 4 μg/mL tigemonam; class A
[18] = tested on: ECL1002 (class C); experiment: Tigemonam potentiation (MPC@4); assay type: cell-based; conditions: BLI concentration inhibiting growth with 4 μg/mL tigemonam
[19] = tested on: EC1010 (CMY-6); experiment: Tigemonam potentiation (MPC@4); assay type: cell-based; conditions: BLI concentration inhibiting growth with 4 μg/mL tigemonam; class C
[20] = tested on: KP1007 (OXA-10); experiment: Tigemonam potentiation (MPC@4); assay type: cell-based; conditions: BLI concentration inhibiting growth with 4 μg/mL tigemonam; class D
[21] = biological target: CTX-M-14 (Escherichia coli, UniProt Q9L5C7); experiment: Inhibition of nitrocefin cleavage by purified enzyme; assay type: biochemical; conditions: nitrocefin reporter substrate, 10 min preincubation, read-out: Ki (CTX-M-14, NCF)
Chain of CTX-M-14 (Q9L5C7 entry or part of it): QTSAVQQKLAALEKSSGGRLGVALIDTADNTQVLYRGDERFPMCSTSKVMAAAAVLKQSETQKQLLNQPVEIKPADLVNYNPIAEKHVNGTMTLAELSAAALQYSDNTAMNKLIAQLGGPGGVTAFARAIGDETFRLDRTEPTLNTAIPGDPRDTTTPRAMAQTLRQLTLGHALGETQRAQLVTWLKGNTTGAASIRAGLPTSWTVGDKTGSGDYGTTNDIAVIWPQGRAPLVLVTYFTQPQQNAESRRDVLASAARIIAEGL
Protocol: (§1) Ki values of inhibition of purified class A, C and D enzymes were determined spectrophotometrically using nitrocefin as reporter substratre. Purified enzymes were mixed with various concentrations of inhibitors in reaction buffer and incubated for 10 min at room temperature. Nitrocefin was added and substrate cleavage profiles were recorded at 490 nm every 10 sec for 10 min.

[22] = biological target: KPC-2 (Klebsiella pneumoniae, UniProt Q9F663); experiment: as above; assay type: biochemical
Chain of KPC-2 (Q9F663 25-293 limits assumed): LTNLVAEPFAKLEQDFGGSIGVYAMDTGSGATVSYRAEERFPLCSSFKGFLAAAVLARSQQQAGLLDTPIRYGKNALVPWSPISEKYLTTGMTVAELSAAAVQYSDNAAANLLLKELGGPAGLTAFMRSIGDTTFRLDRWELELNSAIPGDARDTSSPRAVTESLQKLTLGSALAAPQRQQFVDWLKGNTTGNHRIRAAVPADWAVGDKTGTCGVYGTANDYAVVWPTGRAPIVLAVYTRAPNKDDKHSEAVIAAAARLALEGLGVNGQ
Protocol: as §1

[23] = biological target: OXA-48 (Klebsiella pneumoniae, UniProt Q6XEC0); experiment: as above; assay type: biochemical
Chain of OXA-48 (Q6XEC0 23-265 limits assumed): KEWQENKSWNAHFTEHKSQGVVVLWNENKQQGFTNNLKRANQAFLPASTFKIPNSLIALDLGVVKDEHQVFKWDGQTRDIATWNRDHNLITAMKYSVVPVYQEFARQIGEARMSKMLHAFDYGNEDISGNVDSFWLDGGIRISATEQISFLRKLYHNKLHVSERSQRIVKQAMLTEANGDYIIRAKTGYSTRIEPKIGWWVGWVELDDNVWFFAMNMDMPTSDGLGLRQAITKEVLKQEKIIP
Protocol: as §1

[24] = biological target: CMY-2 (Klebsiella pneumoniae, UniProt Q48434); experiment: biochemical
Chain of CMY-2 (Q48434 21-381): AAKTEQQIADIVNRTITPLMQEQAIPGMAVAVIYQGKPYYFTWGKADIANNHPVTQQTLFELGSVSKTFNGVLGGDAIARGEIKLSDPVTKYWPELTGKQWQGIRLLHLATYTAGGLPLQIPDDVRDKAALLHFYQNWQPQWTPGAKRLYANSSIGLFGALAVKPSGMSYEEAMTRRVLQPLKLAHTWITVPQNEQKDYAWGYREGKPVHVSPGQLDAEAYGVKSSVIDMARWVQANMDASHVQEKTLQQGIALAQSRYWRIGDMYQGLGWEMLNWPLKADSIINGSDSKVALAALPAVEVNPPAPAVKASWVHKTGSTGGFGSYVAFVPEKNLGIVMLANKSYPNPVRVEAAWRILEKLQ

[25] = biological target: SHV-12 (Klebsiella pneumoniae, UniProt P0AD64, E235K/G234S/L31Q); experiment: Inhibition of nitrocefin cleavage by purified enzyme; assay type: biochemical; conditions: nitrocefin reporter substrate, 10 min preincubation, read-out: Ki (SHV-12, NCF)
Chain of SHV-12 (P0AD64 22-286 L31Q/G234S/E235K): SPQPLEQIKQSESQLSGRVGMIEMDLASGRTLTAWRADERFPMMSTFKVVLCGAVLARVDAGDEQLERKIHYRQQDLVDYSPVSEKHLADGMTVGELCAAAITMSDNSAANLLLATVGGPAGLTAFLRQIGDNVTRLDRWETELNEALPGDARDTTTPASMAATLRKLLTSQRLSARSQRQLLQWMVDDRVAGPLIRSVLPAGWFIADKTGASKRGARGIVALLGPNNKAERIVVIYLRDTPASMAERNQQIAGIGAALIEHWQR
Protocol: as §1

[26] = biological target: P99 /AmpC of ECL (Enterobacter cloacae, UniProt P05364); experiment: biochemical; conditions: purified enzyme, nitrocefin reporter substrate, 10 min preincubation; read-out: Ki (P99 /AmpC of ECL, NCF)
Chain of P99 /AmpC of ECL (P05364 21-381): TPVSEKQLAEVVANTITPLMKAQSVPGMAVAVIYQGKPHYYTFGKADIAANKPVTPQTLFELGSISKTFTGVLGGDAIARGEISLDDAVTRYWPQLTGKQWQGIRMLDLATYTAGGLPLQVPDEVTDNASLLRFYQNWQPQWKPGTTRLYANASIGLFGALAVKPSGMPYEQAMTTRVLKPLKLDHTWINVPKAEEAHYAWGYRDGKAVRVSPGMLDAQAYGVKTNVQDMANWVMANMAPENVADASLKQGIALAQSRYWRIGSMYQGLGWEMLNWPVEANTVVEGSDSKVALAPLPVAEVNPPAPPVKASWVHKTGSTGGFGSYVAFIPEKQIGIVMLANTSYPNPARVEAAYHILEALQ

[27] = tested on: KP1005 (CTX-M-14)
[28] = tested on: ECL1002 (class C); conditions: strain ECL1002, class C
[29] = tested on: KP1010 (SHV-12); experiment: Tigemonam MIC of test strain
[30] = tested on: ec302 (TEM-10); experiment: Tigemonam MIC of test strain
[31] = tested on: EC1010 (CMY-6); experiment: Tigemonam MIC of test strain; conditions: strain EC1010, CMY-6, class C
[32] = tested on: KP1007 (OXA-10); experiment: Tigemonam MIC of test strain; conditions: strain KP1007, OXA-10, class D
[33] = BLI concentration inhibiting growth with 4 μg/mL aztreonam, class A
[34] = purified enzyme, nitrocefin reporter substrate, 10 min preincubation, read-out: Ki (KPC-2, NCF)
[35] = purified enzyme, nitrocefin reporter substrate, 10 min preincubation, read-out: Ki (OXA-48, NCF)
[36] = purified enzyme, nitrocefin reporter substrate, 10 min preincubation, read-out: Ki (CMY-2, NCF)

Row | SMILES | AZT MPC4 CTX-M-14 KP1005 [3] [µg/mL] | AZT MPC4 CTX-M-15 KP1009 [4] [µg/mL] | AZT MPC4 SHV-5 ec308 [5] [µg/mL] | AZT MPC4 SHV-12 KP1010 [6, 33] [µg/mL] | AZT MPC4 TEM-10 ec302 [7] [µg/mL] | AZT MPC4 KPC-2 KP1004 [8] [µg/mL] | AZT MPC@4 ECL1002 [9] [µg/mL] | AZT MPC@4 CMY-6 EC1010 [10] [µg/mL] | AZT MPC@4 OXA-10, KP1007 [11] [µg/mL] | AZT MPC@4 OXA-2, KPX1001 [12] [µg/mL] | MPC4 CTX-M-14 KP1005 [13] [µg/mL] | MPC4 CTX-M-15 KP1009 [14] [µg/mL] | MPC4 SHV-5 ec308 [15] | MPC4 SHV-12 KP1010 [16] | MPC4 TEM-10 ec302 [17] [µg/mL] | MPC4 ECL1002 [18] [µg/mL] | MPC4 CMY-6, EC1010 [19] [µg/mL] | MPC4 OXA-10, KP1007 [20] | Ki [21] [nM] | Ki [22, 34] [nM] | further results
1 | C[C@H]1[C@H](NC(=O)/C(=N\OC(C)(C)C(=O)O)c2csc(N)n2)C(=O)N1S(=O)(=O)O [Aztreonam] |  |  |  |  |  |  |  |  |  |  |  |  |  |  |  |  |  |  |  |  | MIC [1]: 64 µg/mL; MIC [2]: 64 µg/mL
2 | O=C(O)[C@H]1/C(=C/CO)O[C@@H]2CC(=O)N21 [Clavulanic Acid] | 1.25 | 1.25 | 0.08 | 0.04 | 0.3 | >40 | >40 | 40 | 0.08 | 5 | 2.5 | 1.25 | <=0.6 μg/mL | <=0.6 μg/mL | 2.5 | >40 | 40 | <=0.6 μg/mL | 27 | 41200 | Ki [23, 35]: 18600 nM; Ki [24, 36]: > 100000 nM
3 | O=C(Cc1cccs1)N[C@@H](Cn1cc(C(=O)O)nn1)B(O)O [Compound 1, (R)-1-(2-borono-2-(2-(thiophen-2-yl)acetamido)ethyl)-1H-1,2,3-triazole-4-carboxylic acid] | 1.25 | 10 | 0.6 | 0.3 | >40 | 5 | 20 | 20 | 0.6 | 40 | 2.5 | 1.25 | 2.5 µg/mL | 0.3 µg/mL | >40 | 5 | 0.6 | 0.3 µg/mL | 5 | 39 | Ki [23, 35]: 23300 nM; Ki [25]: 5 nM; Ki [26]: 80 nM; Ki [24, 36]: 60 nM
4 | C[C@]1(Cn2ccnn2)[C@H](C(=O)O)N2C(=O)C[C@H]2S1(=O)=O [Tazobactam] | 10 | 20 | 10 |  | 5 | >40 | >40 | 20 | 5 | >40 | 10 | 10 | 5 µg/mL | 1.25 µg/mL | 5 | 10 | 2.5 | 5 µg/mL |  |  | AZT MPC4 SHV-12 KP1010 [6]: 1.25 µg/mL; Ki [22]: 1600 nM; Ki [23]: 160 nM; Ki [24]: 710 nM
5 | CC1(C)[C@H](NC(=O)/C(=N\OCC(=O)O)c2csc(N)n2)C(=O)N1OS(=O)(=O)O [Tigemonam] |  |  |  |  |  |  |  |  |  |  |  |  |  |  |  |  |  |  |  |  | Tigemonam MIC [27]: 512 µg/mL; Tigemonam MIC [28]: 32 µg/mL; Tigemonam MIC [29]: 256 µg/mL; Tigemonam MIC [30]: >512 µg/mL; Tigemonam MIC [31]: 16 µg/mL; Tigemonam MIC [32]: >64 µg/mL

Source: patent US9156858B2, “Boronic acid derivatives and therapeutic uses thereof” (priority 2012, dated 2015)
